We go through seven compounds from PubChem BioAssay AID1259411 (Chemical Carcinogenesis Research Information System (CCRIS), 2018).

Activity calls are given as the source filed them. No rule for the calls is given here.

The test system of this series is rodent carcinogenicity bioassays, tumor incidence. In words: CCRIS carcinogenicity studies. Put shortly: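 NCI-built, expert-reviewed records of carcinogenicity and related test outcomes (mutagenicity, tumor promotion/inhibition) compiled from published and report sources, historical span 1985-2011, not updated.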

With `Nc1ccc(-c2ccc(N)cc2)cc1`, the carcinogen call runs as follows: (Species: DOG, Route: ORAL, Tumor Site: Type of Lesion: URINARY BLADDER) “active; positive”; (Species: HAMSTER, Route: ORAL, Tumor Site: Type of Lesion: LIVER) “active; positive”; (Species: HUMAN, Route: ORAL, INHALATION, DERMAL, Tumor Site: Type of Lesion: URINARY BLADDER) “active; positive”; (Species: MOUSE, Route: SUBCUTANEOUS, Tumor Site: Type of Lesion: LIVER) “active; positive”; (Species: RAT, Route: ORAL, Tumor Site: Type of Lesion: LIVER) “active; positive”; (Species: RAT, Route: SUBCUTANEOUS, Tumor Site: Type of Lesion: LIVER, EAR (ZYMBAL GLAND), INJECTION SITE, Tumor Site: Type of Lesion: LIVER, EAR (ZYMBAL GLAND), INJECTION SITE) “active; positive”. Also, where the note is “Species: RAT, Strain/Sex: STRAIN-CD/FEMALE, Route: INTRAPERITONEAL, Dose: 0, 10, 30 UMOL/KG IN TRIOCTANOIN 2/WK FOR 4 WK (TOTAL DOSES: 13.5, 40.1 UMOL) (STUDY DURATION: 46 WK), Dose: 0, 10, 30 UMOL/KG IN TRIOCTANOIN 2/WK FOR 4 WK (TOTAL DOSES: 13.5, 40.1 UMOL) (STUDY DURATION: 46 WK), Tumor Site: Type of Lesion: MAMMARY GLAND: FIBROADENOMA, ADENOCARCINOMA, EAR (ZYMBAL GLAND): ADENOMA OR CARCINOMA”, the carcinogen call is “active; positive”.
Turning to `CNNC` (tested in a mixture with another compound), the carcinogen call (Species: RAT, Strain/Sex: CD-1/MALE, Route: INTRAPERITONEAL, Dose: 0, 10 MG/KG/WK FOR 4 WK (STUDY DURATION: 1 YEAR), Tumor Site: Type of Lesion: PANCREAS: ADENOCARCINOMA, COLON: ADENOCARCINOMA) is “active; positive”.
In the case of `C/C=C/c1ccc2c(c1)OCO2`, the carcinogen call reads like this: (Species: MOUSE, Strain/Sex: B6C3F1/MALE,FEMALE, Route: GAVAGE/ORAL, Dose: 215 MG/KG FROM D 6= 28 OF LIFE THEN 517 MG/KG IN DIET, Tumor Site: Type of Lesion: LIVER) “active; positive”; (Species: RAT, Route: ORAL, Dose: 1000, 2500, 5000, 10000 MG/KG IN DIET FOR 2 YR, Dose: 1000, 2500, 5000, 10000 MG/KG IN DIET FOR 2 YR, Tumor Site: Type of Lesion: LIVER: HEPATOCELLULAR ADENOMA, CARCINOMA) “active; positive”.
With `C/[N+]([O-])=N/CO`, the carcinogen call is, setting by setting: (Species: HAMSTER, Strain/Sex: SYRIAN/MALE,FEMALE, Route: INTRAVENOUS, Dose: 10 MG/KG BW, 4-5 INJ, Tumor Site: Type of Lesion: LIVER: CYSTADENOMA AND CYSTIC LESIONS, VASCULAR TUMOR, HEPATOCELLULAR CARCINOMA, INTESTINES (LARGE): ADENOMA, ADENOCARCI) “active; positive”; (Species: HAMSTER, Strain/Sex: SYRIAN/MALE,FEMALE, Route: INTRAVENOUS, Dose: 15 MG/KG BW, 4-5 INJ, Tumor Site: Type of Lesion: LIVER: CYSTADENOMA AND CYSTIC LESIONS, VASCULAR TUMOR, HEPATOCELLULAR CARCINOMA, INTESTINES (LARGE): ADENOMA, ADENOCARCI) “active; positive”; (Species: HAMSTER, Strain/Sex: SYRIAN/MALE,FEMALE, Route: INTRAVENOUS, Dose: 20 MG/KG BW, 3 INJ, Tumor Site: Type of Lesion: LIVER: CYSTADENOMA AND CYSTIC LESIONS, GALL BLADDER: ADENOCARCINOMA, INTESTINES (LARGE): ADENOCARCINOMA, Tumor Site: Type of Lesion: LIVER: CYSTADENOMA AND CYSTIC LESIONS, GALL BLADDER: ADENOCARCINOMA, INTESTINES (LARGE): ADENOCARCINOMA) “active; positive”; (Species: HAMSTER, Strain/Sex: SYRIAN/MALE,FEMALE, Route: INTRAVENOUS, Dose: 20 MG/KG BW, SINGLE DOSE, Tumor Site: Type of Lesion: LIVER: ADENOCARCINOMA, HEPATOCELLULAR CARCINOMA, VASCULAR TUMOR, CYSTADENOMA AND CYSTIC LESIONS, INTESTINES (LARGE): ADE) “active; positive”; (Species: RAT, Strain/Sex: SPRAGUE-DAWLEY/MALE, Route: INTRAVENOUS, Dose: 25 MG/KG 1/WK FOR 5 WK, Tumor Site: Type of Lesion: INTESTINES (JEJUNUM OR ILEUM), INTESTINES (COLON OR RECTUM), CECUM, DUODENUM, Tumor Site: Type of Lesion: INTESTINES (JEJUNUM OR ILEUM), INTESTINES (COLON OR RECTUM), CECUM, DUODENUM) “active; positive”; (Species: RAT, Strain/Sex: SPRAGUE-DAWLEY/MALE, Route: INTRAVENOUS, Dose: 25 MG/KG 1/WK FOR 15 WK, Tumor Site: Type of Lesion: INTESTINES (JEJUNUM OR ILEUM), INTESTINES (COLON OR RECTUM), CECUM, DUODENUM, Tumor Site: Type of Lesion: INTESTINES (JEJUNUM OR ILEUM), INTESTINES (COLON OR RECTUM), CECUM, DUODENUM) “active; positive”. The carcinogen call (Species: RAT, Strain/Sex: SPRAGUE-DAWLEY/MALE, Route: INTRAVENOUS, Dose: 25 MG/KG, SINGLE DOSE, Tumor Site: Type of Lesion: INTESTINES (JEJUNUM OR ILEUM), INTESTINES (COLON OR RECTUM)) is “active; positive”.
In the case of `Nc1ccc(O)c(N)c1`, the carcinogen call (Species: MOUSE, Strain/Sex: B6C3F1/FEMALE, Route: GAVAGE, Dose: 0, 19, 38 MG/KG IN CORN OIL 5 D/WK FOR 104 WK (STUDY DURATION: 2 YR), Dose: 0, 19, 38 MG/KG IN CORN OIL 5 D/WK FOR 104 WK (STUDY DURATION: 2 YR)) was “inactive; negative”; the carcinogen call (Species: RAT, Strain/Sex: F344/FEMALE, Route: GAVAGE, Dose: 0, 12.5, 25 MG/KG IN CORN OIL 5 D/WK FOR 104 WK (STUDY DURATION: 2 YR), Dose: 0, 12.5, 25 MG/KG IN CORN OIL 5 D/WK FOR 104 WK (STUDY DURATION: 2 YR)) is “inactive; negative”; the carcinogen call (Species: RAT, Strain/Sex: F344/MALE, Route: GAVAGE, Dose: 0, 12.5, 25 MG/KG IN CORN OIL 5 D/WK FOR 104 WK (STUDY DURATION: 2 YR)) was “inactive; negative”.
On to `COc1cc2c(c3oc(=O)c4c(c13)CC[C@@H]4O)[C@@H]1C=CO[C@@H]1O2`, for which the carcinogen call (Species: FISH, Strain/Sex: SHASTA RAINBOW TROUT/MALE, FEMALE, Route: IMMERSION, Dose: 0, 0.01, 0.025, 0.05, 0.1, 0.25, 0.5 PPM SOLUTION IN WATER FOR 1 HR EXPOSURE OF EMBRYOS (STUDY DURATION: 13 MO), Dose: 0, 0.01, 0.025, 0.05, 0.1, 0.25, 0.5 PPM SOLUTION IN WATER FOR 1 HR EXPOSURE OF EMBRYOS (STUDY DURATION: 13 MO), Tumor Site: Type of Lesion: LIVER: TUMORS) was “active; positive”; the carcinogen call (Species: FISH, Strain/Sex: SHASTA RAINBOW TROUT/MALE, FEMALE, Route: ORAL, Dose: 0, 4, 8, 16, 32, 64 PPB IN DIET FOR 2 WK FOLLOWED BY CONTROL DIET FOR THE DURATION OF STUDY (STUDY DURATION: 9 MO), Dose: 0, 4, 8, 16, 32, 64 PPB IN DIET FOR 2 WK FOLLOWED BY CONTROL DIET FOR THE DURATION OF STUDY (STUDY DURATION: 9 MO), Tumor Site: Type of Lesion: LIVER: TUMOR) was “active; positive”; the carcinogen call (Species: RAT, Strain/Sex: F344/MALE, Route: ORAL, Dose: 50, 200 PPB IN DIET 2/WK FOR 12 MO, Tumor Site: Type of Lesion: LIVER: HEPATOCELLULAR CARCINOMA) was “active; positive”; the carcinogen call (Species: TROUT, Strain/Sex: MT. SHASTA RAINBOW, Route: ORAL, Dose: 29 PPB IN DIET FOR 12 MO, Tumor Site: Type of Lesion: LIVER: HEPATOCELLULAR CARCINOMA) was “active; positive”.
As for `N[C@@H](CS)C(=O)O`, the carcinogen call by setting is: (Species: RAT, Strain/Sex: F344/FEMALE, Route: ORAL, Dose: 0, 0.25, 0.5% IN DRINKING WATER FOR 108 WK (STUDY DURATION: 108 WK), Dose: 0, 0.25, 0.5% IN DRINKING WATER FOR 108 WK (STUDY DURATION: 108 WK)) “inactive; negative”; (Species: RAT, Strain/Sex: F344/MALE, Route: ORAL, Dose: 0, 0.25, 0.5% IN DRINKING WATER FOR 108 WK (STUDY DURATION: 108 WK), Dose: 0, 0.25, 0.5% IN DRINKING WATER FOR 108 WK (STUDY DURATION: 108 WK)) “inactive; negative”.
